Measured values as given in PMC3098941 (ACS chemical biology, 2011).

Experiments:
Type in all cases: binding
Akt1 = Akt1 (Homo sapiens, UniProt P31749); assay: ANS fluorescence titration of Akt; conditions: up to 100 μM ANS
Aurora A = target: T1, Aurora A (Homo sapiens, UniProt O14965); assay: ANS fluorescence titration of Aurora A; conditions: read-out: apparent Kd of ANS for Aurora A; Aurora A 5.8 μM, slit widths 10/10
T1 sequence (O14965 123-380): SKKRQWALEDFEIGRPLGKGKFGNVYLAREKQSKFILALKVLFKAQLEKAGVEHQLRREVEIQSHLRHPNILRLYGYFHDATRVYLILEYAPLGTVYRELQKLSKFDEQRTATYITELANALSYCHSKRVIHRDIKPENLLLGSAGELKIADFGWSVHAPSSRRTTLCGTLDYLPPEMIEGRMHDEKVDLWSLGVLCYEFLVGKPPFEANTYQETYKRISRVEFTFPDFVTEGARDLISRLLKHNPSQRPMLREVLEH

Rock1 = Rock1 (Homo sapiens, UniProt Q13464); assay: ANS fluorescence titration of Rock 1; conditions: up to 100 μM ANS
Chain of Rock1 (Q13464 5-415): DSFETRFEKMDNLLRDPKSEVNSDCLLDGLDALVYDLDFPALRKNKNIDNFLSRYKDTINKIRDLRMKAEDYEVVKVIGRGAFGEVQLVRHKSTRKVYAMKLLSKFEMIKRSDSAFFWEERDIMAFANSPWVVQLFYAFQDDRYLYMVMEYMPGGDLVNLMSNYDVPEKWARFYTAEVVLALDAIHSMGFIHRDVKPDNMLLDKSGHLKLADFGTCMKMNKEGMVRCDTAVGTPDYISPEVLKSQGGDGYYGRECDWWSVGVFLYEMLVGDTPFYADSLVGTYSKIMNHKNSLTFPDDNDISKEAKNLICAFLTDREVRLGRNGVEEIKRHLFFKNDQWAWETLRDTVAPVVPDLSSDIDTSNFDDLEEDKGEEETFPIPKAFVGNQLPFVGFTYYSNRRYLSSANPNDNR

CDK2-ANS complex = CDK2-ANS complex (Homo sapiens, UniProt P24941); assay: Quenching of CDK2-ANS fluorescence by ligands; conditions: 50 μM ANS; for effect on CDK2-ANS fluorescence yield: concentrations as high as 300 μM, 1.6 μM CDK2

Chain of Akt1 (P31749 whole entry): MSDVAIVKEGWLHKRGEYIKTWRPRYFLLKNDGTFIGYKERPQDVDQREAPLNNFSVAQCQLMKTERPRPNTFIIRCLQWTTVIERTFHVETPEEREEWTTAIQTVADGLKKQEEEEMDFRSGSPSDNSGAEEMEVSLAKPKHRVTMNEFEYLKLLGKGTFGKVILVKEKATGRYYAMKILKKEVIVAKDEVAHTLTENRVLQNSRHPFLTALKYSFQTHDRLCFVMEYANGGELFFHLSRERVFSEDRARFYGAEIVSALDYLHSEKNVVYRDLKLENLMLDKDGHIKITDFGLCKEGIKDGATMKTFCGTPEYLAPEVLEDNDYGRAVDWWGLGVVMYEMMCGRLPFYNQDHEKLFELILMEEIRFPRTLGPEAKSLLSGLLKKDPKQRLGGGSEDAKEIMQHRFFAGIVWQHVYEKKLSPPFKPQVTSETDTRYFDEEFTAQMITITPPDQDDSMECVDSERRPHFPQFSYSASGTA

Compound | saturation of ANS fluorescence with Akt (Akt1) | Kd (Aurora A) [µM] | saturation of ANS fluorescence with Rock 1 (Rock1) | effect on CDK2-ANS fluorescence yield (CDK2-ANS complex) | effect on CDK2-ANS fluorescence (CDK2-ANS complex; concentrations up to 100 μM)
O=S(=O)(O)c1cccc2cccc(Nc3ccccc3)c12 [ANS, 8-anilino-1-naphthalene sulfonate] | saturation was not reached | 54 | saturation was not reached | – | –
Nc1ncnc2c1ncn2[C@@H]1O[C@H](COP(=O)(O)OP(=O)(O)OP(=O)(O)O)[C@@H](O)[C@H]1O [ATP] | – | – | – | only marginally affected | did not appear to affect
COc1ccc(O)c(-c2nc(N)nc(N)n2)c1 [JWS648] | – | – | – | only marginally affected | –
